In data set [1] the test system is mock-infected MT-4 cells. The experiment in a line: Compound toxicity in mock-infected cells (WST-1 assay). It counts as cell-based. The conditions noted are these: toxicity measure, host cells; read-out: TC50 (concentration of compound that results in death of 50% of the host cells). The procedure:
(§1) The HTLV-1 transformed T cell line, MT-4, is highly susceptible to HIV-1 infection. Anti-HIV-1 agents were evaluated in this target cell line by protection from the HIV-induced cytopathic effect. In this assay, viability of both HIV-1 and mock-infected cells was assessed in a colorimetric assay that monitors the ability of metabolically-active cells to reduce the tetrazolium salt WST-1. Cytoprotection by antiviral compounds is indicated by the positive readout of increased WST-1 cleavage.
(§2) Briefly, exponentially growing MT-4 cells were mock-infected or batch-infected with the HIV-1 laboratory strain, NL4-3, at a multiplicity of infection of 0.0005. Following a two hour infection, the cells were washed to remove unbound virus and plated in the presence of increasing concentrations of compound. After four days incubation, cytoprotection in the infected cells and compound toxicity in mock-infected cells were analyzed using the WST-1 assay.
(Tetrazolium dyes change colour on reduction, which living cells bring about.)

For data set [2], the system named is HIV-1 laboratory strain, NL4-3. Nature of the data set: MT-4 Cytoprotection Assay (protection from HIV-induced cytopathic effect, WST-1). The conditions noted are these: Human immunodeficiency virus 1, NL43; representative compounds; read-out: EC50 of less than about 100 nm. The class given is cell-based. As to the method: MT-4 Cytoprotection Assay
as §1, §2
On the technique in general: Cytopathic effects are the visible damage that an infection or toxin causes in cultured cells.

In general, EC50 refers to the concentration needed to bring the measured effect to its halfway point.

In the case of `C=C(C)[C@@H]1CC[C@]2(C(=O)NCc3ccccc3C(=O)O)CC[C@]3(C)[C@H](CC[C@@H]4[C@@]5(C)CC[C@H](OC(=O)CC(C)(C)C(=O)O)C(C)(C)[C@@H]5CC[C@]43C)[C@@H]12` [Compound 73], the CC50 in data set [1] was around 6.3 µM.

As to `CC(C)[C@@H]1CC[C@]2(C(=O)NCCC3CCCCC3)CC[C@]3(C)[C@H](CC[C@@H]4[C@@]5(C)CC[C@H](OC(=O)CC(C)(C)C(=O)O)C(C)(C)[C@@H]5CC[C@]43C)[C@@H]12` [Compound 124], the EC50 in data set [2] is below 0.1 µM.

With `C=C(C)[C@@H]1CC[C@]2(C(=O)NCc3ccc(C(=O)O)cc3)CC[C@]3(C)[C@H](CC[C@@H]4[C@@]5(C)CC[C@H](OC(=O)CC(C)(C)C(=O)O)C(C)(C)[C@@H]5CC[C@]43C)[C@@H]12` [Compound 71], the CC50 in data set [1] was around 7.7 µM.

The values above are taken from patent US20110144069A1, “COMPOUNDS FOR TREATING VIRAL INFECTIONS” (priority 2006, published 2011).
